# Data published in patent US12011475B2, “Polypeptide, polypeptide fragment, derivative thereof, and applications thereof” (CHENGDU HUITAI BIOMEDICINE CO., LTD., priority 2017, dated 2024).
# Ends that are not written are not given here.
# Experiments:
# Assay type in all cases: in vivo
# [1] = test system: rat with pulmonary fibrosis induced by bleomycin; test: Lung coefficient, intratracheal instillation (Example 17); settings: lung mass (mg)/body weight (g), 8 mg/kg peptide + 4 mg/kg bleomycin, Mean ± SEM
# Description: The rats in Example 2 were weighed and sacrificed by anesthesia overdose. Lung tissue of both sides of the rats was taken, and the connective tissue around the lung tissue was carefully removed. After washing with saline and dried with a filter paper, the wet weight of the whole lung was weighted by an electronic balance. After the wet weight of the whole lung was weighted by the electronic balance, the lung coefficient was calculated according to the formula, lung coefficient=lung mass (mg)/body weight (g) (the result is shown in FIG. 1).
# (§1) The rats in model group were intratracheally instilled with bleomycin (4 mg/kg); after anesthesia, the rats in treatment groups were intratracheally instilled with bleomycin (4 mg/kg) and corresponding therapeutic drug (8 mg/kg) simultaneously. The remaining implementation steps were the same as the description of Example 9.
# The experimental rats of the control group, the model group and the treatment groups of Example 15 were taken to determine the lung coefficient. The implementation steps were the same as the description of Example 2.
# [2] = test system: rat with pulmonary fibrosis induced by bleomycin; test: HE staining score, intratracheal instillation (Example 18); settings: inflammatory pathology score, grade 0 to 3, 8 mg/kg peptide + 4 mg/kg bleomycin, Mean ± SEM
# Text: (§2) The lung tissue of the rats of Example 2 was taken, fixed with 4% paraformaldehyde and embedded in paraffin. The wax block embedded the lung tissue was sectioned along the largest cross section. Pathological changes in lung tissue were observed using hematoxylin-eosin (HE) staining. Pathological changes in lung tissue were observed under a light microscope (low magnification) at a magnification of 100 times (the result is shown in FIG. 2).
# According to the method provided by Szapie, et al., the degree of alveolitis was graded according to the range of lesions and could be divided into 0 to 3 grades, corresponding to 0 to 3 points. The evaluation indexes for the degree of alveolitis are as follows: grade 0, no alveolitis; grade 1, mild alveolitis, manifested as a slight increase in alveolar septum, infiltration of monocytes, near the pleura or localized, with a lesion range of less than 20% without alveolar structural damage; grade 2, moderate alveolitis, the lesion ranges from 20% to 50%, relatively severe near the pleura; grade 3, severe alveolitis, diffusely distributed, the lesion range is more than 50%, with pulmonary parenchymal lesion occasionally. […]
# [3] = test system: rat with pulmonary fibrosis induced by bleomycin; test: Masson staining score, intratracheal instillation (Example 19); settings: fibrosis pathology score, grade 0 to 8, 8 mg/kg peptide + 4 mg/kg bleomycin, Mean ± SEM
# Text: as §2, with “9” for “2”, “staining by Masson's trichrome stain (Masson).” for “hematoxylin-eosin (HE) staining.”, “15).” for “2).”
# According to the Modified Ashcroft scale scoring method, the degree of pulmonary fibrosis was evaluated according to the range of lesions and could be divided into 0 to 8 grades.
# as §1
# The lung tissue of the control group, the model group and the treatment groups of Example 15 was taken and subjected to Masson staining and scoring. The specific implementation steps were the same as the description of Example 13.
# [4] = test system: rat with pulmonary fibrosis induced by bleomycin; test: Rat body weight, intravenous injection (Examples 20-21); settings: Day 14/Day 0; intravenous injection 10 mg/kg once a day, 4th to 13th day after bleomycin 4 mg/kg; Mean ± SEM
# Text: The model and the administration route were referred to Example 15. The experimental rats in the control group, the model group, and the treatment groups described in Example 15 were weighted every day from the 1st day until the 14th day. When weighing, the “unstable weighing” of the electronic balance was selected, and an appropriate number of weighing and a degree of tolerable instability during the reading phase were set according to the instructions to weigh and record the readings. The result is shown in the weight ratios in FIG. 2 (Day 14/Day 0).
# (§3) The rats were weighed before administration, intramuscularly injected with 65 mg/kg Zoletil anesthetic solution. After the rats entered the stage III anesthesia, the experimental rats were fixated in the lateral decubitus. Gavage needle size 12 was inserted into rat trachea through oral cavity along the glottis to instill sterile saline or bleomycin (4 mg/kg) (Day 0). After the anesthesia, the rats in control group were intratracheally instilled with an equal volume of sterile saline, and the rats in model group and treatment groups were intratracheally instilled with bleomycin (4 mg/kg). On the 4th day, the sterile saline or peptide drug was injected through the tail vein once a day until the 13th day. The rats were sacrificed on the 14th day for subsequent experiments. […]
# tgf-β = test: mRNA content of tgf-β in rat lung tissue by qPCR (Example 26); settings: 18S RNA internal reference; intravenous injection 10 mg/kg once a day, 4th to 13th day after bleomycin 4 mg/kg; Mean ± SEM
# Description: as §3
# The rat lung tissue in the control group, the model group and the treatment groups of Example 20 was taken. […] After obtaining cDNA using reverse transcription, fluorescence quantitative PCR (qPCR) kit (Applied Biosystems, Cat. No. 4319413E) was used to detect the mRNA content of tgf-β (forward primer: GAGGTGACCTGGGCACCAT, reverse primer: GGCCATGAGGAGCAGGAA), 18S RNA was used as an internal reference, and the result is shown in the tgf-β values in Table 4.
sequence,measurement,setting,value
YRVRFLAKENVTQDAEDN [N1],Lung Coefficient,[1],8.49 ± 0.09
same,HE Score,[2],2.45 ± 0.09
same,Masson Score,[3],3.93 ± 0.09
same,Weight Ratio,[4],1.05 ± 0.02
same,tgf-β (mRNA content of tgf-β in lung tissue),tgf-β,2.50 ± 0.04
